Test results reported in US5114918A, “Endothelin antagonistic cyclic pentapeptides” (Banyu Pharmaceutical Co., Ltd., priority 1989, dated 1992).
Numbered stars: 1 amine (or outer) side, 2 acyl side, 3 side chain; on linkers, the order of the positions; unused ones are H or OH. Square brackets hold non-standard residues; d marks the D form. Peptide text beside a SMILES is read from it. * marks the point of attachment. Gly(N-CH2CH2-imidazol-4-yl) = O=C(O)CNCCc1c[nH]cn1; X4 = O=C1Nc2ccccc2C1C[C@@H](N[*:1])C(=O)[*:2]; dGly(2-thienyl) = N[C@@H](C(=O)O)c1cccs1; X1 = CC[C@](N[*:1])(C(=O)[*:2])c1cccs1; d(aIle) = CC[C@H](C)[C@@H](N)C(=O)O; dCya = N[C@H](CS(=O)(=O)O)C(=O)O; Gly(N-cPent) = O=C(O)CNC1CCCC1; dPhg = N[C@@H](C(=O)O)c1ccccc1; dNva = CCC[C@@H](N)C(=O)O; NMeA = CN[C@@H](C)C(=O)O; Nle = CCCC[C@H](N)C(=O)O; Thz = O=C(O)[C@@H]1CSCN1; Nva = CCC[C@H](N)C(=O)O; Moc = COC(=O)*; For = O=C*

Target: T1, endothelin receptor (membrane of smooth muscle tissue of porcine aorta) (Sus scrofa, UniProt Q29010)
T1 construct: from tissue; host or cells: smooth muscle tissue of porcine aorta (membrane fraction)
T1 sequence (Q29010 21-427): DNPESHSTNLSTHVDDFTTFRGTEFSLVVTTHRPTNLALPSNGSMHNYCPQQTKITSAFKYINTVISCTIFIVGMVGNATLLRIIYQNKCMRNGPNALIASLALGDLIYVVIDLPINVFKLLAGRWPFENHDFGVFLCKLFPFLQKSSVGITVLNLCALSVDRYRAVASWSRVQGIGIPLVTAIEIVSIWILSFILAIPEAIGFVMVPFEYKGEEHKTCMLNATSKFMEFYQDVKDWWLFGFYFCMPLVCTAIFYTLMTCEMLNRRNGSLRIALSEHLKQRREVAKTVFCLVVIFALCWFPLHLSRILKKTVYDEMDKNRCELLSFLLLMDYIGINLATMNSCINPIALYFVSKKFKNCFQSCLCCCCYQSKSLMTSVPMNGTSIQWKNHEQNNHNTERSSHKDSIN
Test: Endothelin binding inhibition test (125I-endothelin-1, porcine aorta smooth muscle membrane)
Settings: 1.1 μM of the test compound; porcine aorta smooth muscle membrane; 25° C, 4 hours
Method: Endothelin binding inhibition test
The smooth muscle tissue of porcine aorta was homogenized in a buffer solution of 10 mM MOPS, pH 7.4, at 4° C. by a polytron. To the homogenate, sucrose was added to a concentration of 20%, and the mixture was centrifuged at 1,000×g for 15 minutes, and the supernatant was further centrifuged at 10,000×g for 15 minutes. The supernatant thereof was further centrifuged at 90,000×g for 40 minutes. The membrane precipitate thereby obtained was suspended in a buffer solution of 5 mM HEPES/Tris, pH 7.4, at a concentration of 25 mg/ml.
Then, 16 μl of this membrane suspension was added to 340 μl of 50 mM Tris/HCl buffer, pH 7.4, containing 10 μM calcium chloride, 10 μM magnesium chloride, 0.1 mM PMSF, 1 μM pepstatin A, 2 μM leupeptin, 1 mM 1,10-phenanthroline and 0.1% bovine serum albumin. To this suspension, 4 μl of (A) endothelin-1 (for nonspecific binding: 0.2 μM as the final concentration), (B) buffer solution A (for total control binding), or (C) a test compound (1.1 μM as the final concentration), was added. Further, to each suspension, 40 μl of ^125 I-endothelin-1 (12000-18000 cpm) was added. These mixtures were incubated at 25° C for 4 hours, then subjected to filtration on a glass filter GF/C and then washed with 5 mM HEPES/Tris, pH 7.4, containing 0.3% bovine serum albumin. Then, the radioactivity trapped by the glass filter was measured, and the ^125 I-endothelin-1 binding inhibition D (%) at 1.1 μM of the test compound was determined by the following equation. [formula] Each test was performed in triplicate.

| 125I-endothelin-1 binding inhibition, Inhibition (%) | Compound |
| --- | --- |
| 67% | cyclo(-DTrp-DCys(O3 Na)-Glu-DVal-Leu-) [Example 49] |
| 78% | cyclo(-DTrp-DAsp-Cys(O3 Na)-DVal-Leu-) [Example 24] |

The remaining lines, values behind:

| Compound | 125I-endothelin-1 binding inhibition, Inhibition (%) |
| --- | --- |
| cyclo([dW][dE]A[d(aIle)]L) [Example 8] | 37% |
| cyclo(-DTrp(CHO)-DAsp-Pro-DaIle-Leu-) [Example 53] | 89% |
| cyclo(-DTrp-DCys(O3 Na)-Pro-DaIle-Leu-) [Example 43] | 85% |
| cyclo(-DTrp(CHO)-DGlu-Ala-DaIle-Leu-) [Example 52] | 64% |

Same assay, conditions: 1.1 μM of the test compound; porcine aorta smooth muscle membrane; 25° C, 4 hours; read-out: 125I-endothelin-1 binding inhibition, Inhibition (%)

| inhibition at 1.1 µM | Compound |
| --- | --- |
| 85% | CC(C)C[C@@H]1NC(=O)[C@@H](c2cccs2)NC(=O)CN(C2CCCC2)C(=O)[C@@H](CC(=O)O)NC(=O)[C@@H](Cc2c[nH]c3ccccc23)NC1=O [Example 73, cyclo(-DTrp-DAsp-CpGly-DThg-Leu-)] (cyclo(L[dW][dD][Gly(N-cPent)][dGly(2-thienyl)])) |
| 82% | CC(C)C[C@@H]1NC(=O)[C@@H](C(C)C)NC(=O)CN(CCc2c[nH]cn2)C(=O)[C@@H](CC(=O)O)NC(=O)[C@@H](Cc2c[nH]c3ccccc23)NC1=O [Example 85, cyclo(-DTrp-DAsp-IeGly-DVal-Leu-)] (cyclo(L[dW][dD][Gly(N-CH2CH2-imidazol-4-yl)][dV])) |
| 57% | CC(C)C[C@@H]1NC(=O)[C@@H](C(C)C)NC(=O)[C@H](CCCCN)NC(=O)[C@@H](CS(=O)(=O)O)NC(=O)[C@@H](Cc2c[nH]c3ccccc23)NC1=O [Example 50, cyclo(-DTrp-nCys(O3 H)-Lys-DVal-Leu-)] (cyclo(K[dV]L[dW][dCya])) |
| 79% | CCC[C@H]1NC(=O)[C@@H]2CCCN2C(=O)[C@@H](CC(=O)O)NC(=O)[C@@H](Cc2c[nH]c3ccccc23)NC(=O)[C@H](CC(C)C)NC1=O [Example 35, cyclo(-DTrp-DAsp-Pro-DNva-Leu-)] (cyclo(L[dW][dD]P[dNva])) |
| 86% | CC(C)C[C@@H]1NC(=O)[C@@H](C(C)C)NC(=O)[C@@H]2CSCN2C(=O)[C@@H](CC(=O)O)NC(=O)[C@@H](Cc2c[nH]c3ccccc23)NC1=O [Example 68, cyclo(-DTrp-DAsp-Thz-DVal-Leu-)] (cyclo(L[dW][dD][Thz][dV])) |
| 81% | CC[C@]1(c2cccs2)NC(=O)[C@@H]2CCCN2C(=O)[C@@H](CC(=O)O)NC(=O)[C@@H](Cc2c[nH]c3ccccc23)NC(=O)[C@H](CC(C)C)NC1=O [Example 82, cyclo(-DTrp-DAsp-Pro-DEtg-Leu-)] (cyclo(L[dW][dD]P[X1])) |
| 75% | CCCC[C@@H]1NC(=O)[C@@H](CC(=O)O)NC(=O)[C@@H](Cc2c[nH]c3ccccc23)NC(=O)[C@H](CC(C)C)NC(=O)[C@@H](C(C)C)NC1=O [Example 46, cyclo(-DTrp-DAsp-Nle-DVal-Leu-)] (cyclo(L[dW][dD][Nle][dV])) |
| 72% | CC(C)C[C@@H]1NC(=O)[C@@H](CC(=O)O)NC(=O)[C@@H](Cc2c[nH]c3ccccc23)NC(=O)[C@H](CC(C)C)NC(=O)[C@@H](C(C)C)NC1=O [Example 6, cyclo(-DTrp-DAsp-Leu-DVal-Leu-)] (cyclo(L[dV]L[dW][dD])) |

The next lines start with the compound.

| Compound | inhibition at 1.1 µM |
| --- | --- |
| COC(=O)n1cc(C[C@H]2NC(=O)[C@H](CC(C)C)NC(=O)[C@@H](C(C)C)NC(=O)[C@@H]3CCCN3C(=O)[C@@H](CC(=O)O)NC2=O)c2ccccc21 [Example 86, cyclo(-DTrp(COOCH3)-DAsp-Pro-DVal-Leu-)] (cyclo(L[dW](Moc)[dD]P[dV])) | 90% |
| CC(C)C[C@@H]1NC(=O)[C@@H](c2ccccc2)NC(=O)[C@@H]2CCCN2C(=O)[C@@H](CC(=O)O)NC(=O)[C@@H](Cc2c[nH]c3ccccc23)NC1=O [Example 34, cyclo(-DTrp-DAsp-Pro-DPhg-Leu-)] (cyclo(L[dW][dD]P[dPhg])) | 83% |
| CC(C)C[C@@H]1NC(=O)[C@@H](C(C)C)NC(=O)[C@H](C)N(C)C(=O)[C@@H](CC(=O)O)NC(=O)[C@@H](CC2C(=O)Nc3ccccc32)NC1=O (stereo partly drawn) [Example 89, cyclo(-DTrp(O)-DAsp-MeAla-DVal-Leu-)] (cyclo(L[X4][dD][NMeA][dV])) | 67% |
| CCC[C@@H]1NC(=O)[C@@H](C(C)C)NC(=O)[C@@H]2CCCN2C(=O)[C@@H](CC(=O)O)NC(=O)[C@@H](Cc2cn(C=O)c3ccccc23)NC1=O [Example 56, cyclo(-DTrp(CHO)-DAsp-Pro-DVal-Nva-)] (cyclo([Nva][dW](For)[dD]P[dV])) | 84% |
| CC(C)C[C@@H]1NC(=O)[C@@H](C(C)C)NC(=O)[C@H](CO)NC(=O)[C@@H](CCC(=O)O)NC(=O)[C@@H](Cc2c[nH]c3ccccc23)NC1=O [Example 1, cyclo(-DTrp-DGlu-Ser-DVal-Leu-)] (cyclo(L[dW][dE]S[dV])) | 19% |
| CC(C)C[C@@H]1NC(=O)[C@@H](C(C)C)NC(=O)[C@H](C)NC(=O)[C@@H](CS(=O)(=O)O)NC(=O)[C@@H](Cc2c[nH]c3ccccc23)NC1=O [Example 2, cyclo(-DTrp-DCys(O3 Na)-Ala-DVal-Leu-)] (cyclo(A[dV]L[dW][dCya])) | 78% |
| CCCC[C@@H]1NC(=O)[C@@H](C(C)C)NC(=O)[C@H](CO)NC(=O)[C@@H](CC(=O)O)NC(=O)[C@@H](Cc2c[nH]c3ccccc23)NC1=O [Example 36, cyclo(-DTrp-DAsp-Ser-DVal-Nle-)] (cyclo([Nle][dW][dD]S[dV])) | 67% |
| CC(C)C[C@@H]1NC(=O)[C@@H](C(C)C)NC(=O)[C@H](C(C)C)NC(=O)[C@@H](CC(=O)O)NC(=O)[C@@H](Cc2c[nH]c3ccccc23)NC1=O [Example 44, cyclo(-DTrp-DAsp-Val-DVal-Leu-)] (cyclo(L[dW][dD]V[dV])) | 56% |
| CC(C)C[C@@H]1NC(=O)[C@@H](C(C)C)NC(=O)[C@H](Cc2c[nH]c3ccccc23)NC(=O)[C@@H](CC(=O)O)NC(=O)[C@@H](Cc2c[nH]c3ccccc23)NC1=O [Example 17, cyclo(-DTrp-DAsp-Trp-DVal-Leu-)] (cyclo(L[dW][dD]W[dV])) | 75% |
| CC(C)C[C@@H]1NC(=O)[C@@H](c2cccs2)NC(=O)CN(CC(=O)O)C(=O)[C@@H](CC(=O)O)NC(=O)[C@@H](Cc2c[nH]c3ccccc23)NC1=O [Example 83, cyclo(-DTrp-DAsp-CmGly-DThg-Leu-)] | 82% |
| CC(C)C[C@@H]1NC(=O)[C@@H](C(C)C)NC(=O)[C@H](CC(=O)O)NC(=O)[C@@H](CCC(=O)O)NC(=O)[C@@H](Cc2c[nH]c3ccccc23)NC1=O [Example 9, cyclo(-DTrp-DGlu-Asp-DVal-Leu-)] (cyclo(D[dV]L[dW][dE])) | 30% |
| CSCC[C@@H]1NC(=O)[C@@H](CC(=O)O)NC(=O)[C@@H](Cc2c[nH]c3ccccc23)NC(=O)[C@H](CC(C)C)NC(=O)[C@@H](C(C)C)NC1=O [Example 14, cyclo(-DTrp-DAsp-Met-DVal-Leu-)] (cyclo(L[dW][dD]M[dV])) | 75% |
| CCCC[C@@H]1NC(=O)[C@@H](C(C)C)NC(=O)[C@H](CO)NC(=O)[C@@H](CC(=O)O)NC(=O)[C@@H](Cc2cn(C=O)c3ccccc23)NC1=O [Example 54, cyclo(-DTrp(CHO)-DAsp-Ser-DVal-Nle-)] (cyclo([Nle][dW](For)[dD]S[dV])) | 65% |
| CC(C)C[C@@H]1NC(=O)[C@@H](C(C)C)NC(=O)[C@H](C)NC(=O)[C@@H](CCC(=O)O)NC(=O)[C@@H](Cc2c[nH]c3ccccc23)NC1=O [Example 7, cyclo(-DTrp-DGlu-Ala-DVal-Leu-)] (cyclo(A[dV]L[dW][dE])) | 27% |
| CC(C)C[C@@H]1NC(=O)[C@@H](C(C)C)NC(=O)[C@H](CCC(=O)O)NC(=O)[C@@H](CC(=O)O)NC(=O)[C@@H](Cc2c[nH]c3ccccc23)NC1=O [Example 23, cyclo(-DTrp-DAsp-Glu-DVal-Leu-)] (cyclo(E[dV]L[dW][dD])) | 72% |
| CC(C)C[C@@H]1NC(=O)[C@@H](C(C)C)NC(=O)[C@H](C)N(C)C(=O)[C@@H](CC(=O)O)NC(=O)[C@@H](Cc2c[nH]c3ccccc23)NC1=O [Example 13, cyclo(-DTrp-DAsp-MeAla-DVal-Leu-)] (cyclo(L[dW][dD][NMeA][dV])) | 85% |
| CC(C)C[C@@H]1NC(=O)[C@@H](CC(C)C)NC(=O)[C@H](C)NC(=O)[C@@H](CC(=O)O)NC(=O)[C@@H](Cc2c[nH]c3ccccc23)NC1=O [Example 28, cyclo(-DTrp-DAsp-Ala-DLeu-Leu-)] (cyclo(A[dL]L[dW][dD])) | 51% |
